Experiments:
anti-GAA antibody titers = experiment: Effect of OPLS on immunogenicity of GAA protein; assay type: in vivo, mice; settings: 5 mg dose with 1 μg GAA, 4 weekly s.c., 2 week rest
Description: Materials and Methods: GAA Source: Full length recombinant rhGAA was produced in Human Kidney Embryo Cells for our use by Creative Biomart (Shirley, N.Y.); OPLS Source: Sigma-Aldrich (St. Louis, Mo.). n=8 animals/group were immunized with 4 weekly s.c. injections of 1 μg of GAA in 100 μl of either sterile TRIS for the free group or in 5 mg OPLS in sterile TRIS for the OPLS-GAA group. A group of 8 mice will receive the same dose of CBrhGAA in 5 mg O-phospho-D-serine (OPDS) solution as a negative control. After a 2 week rest period, a blood sample from the saphenous vein will be collected. Samples were stored at −80° C. until analysis. These samples were then analyzed for anti-GAA Ab titers. Anti-GAA antibody titers were measured as follows: ELISA plate (maxisorp, NUNC) was coated with 50 μl of 5 μg/ml of sterile rhGAA in sodium carbonate-bicarbonate buffer pH =9.6. The plate was incubated overnight at 4° C. The plate was washed six times with PBS containing 0.05% Tween 20 (PBS-T, 250 μl/well) using an automated plate washer. The plate was blocked with PBS containing 1% BSA (300 μl/well) as the block buffer for 2 hr at 37° C. […] The reaction was stopped with 2 N sulfuric acid and read immediately at 450 nm using a micro-plate reader. The titer values are quantitated using a statistical endpoint method as described by Frey et al. Control plasma samples were run on each plate. […]

[1] = tested on: anti-FVIII antibody titers; experiment: FVIII-specific tolerance with OPLS, OPDS or Dex, rechallenge with free FVIII (FIG. 11); settings: s.c. co-administration with FVIII, then s.c. free FVIII
anti-GAA total titers = experiment: OPLS-GAA sequential administration study; assay type: in vivo, Mice
Description: This examples describes OPLS-GAA sequential administration study. To determine if OPLS can exert its immunomodulatory effects on the immune response to GAA when the two are administered in separate spaced injections, at the same injection site the following experiments were carried out. Mice (n=6 animals/group) were immunized with 4 weekly sc injections as follows. One group of animals received one single combined injection of 5 mg OPLS and 1 μg rhGAA(100 μl volume). Recombinant human GAA was produced by Creative Biomart. The second group received one injection of 5 mg OPLS (100 μl volume) then after a 5 minute wait they received a second injection of 1 μg rhGAA in sterile TRIS (100 μl volume) in the same injection site. The final control group received one injection of sterile TRIS (100 μl volume) then after a 5 minute wait they received a second injection of 1 μg rhGAA in sterile TRIS (100 μl volume) in the same injection site. After a two week rest period a saphenous blood sample was collected. All of the mice were then rechallenged with 4 weekly injections of 1 μg of rhGAA in 100 μl sterile TRIS (one single injection). Analysis was done by ELISA for total titers. The mean free GAA after 6 weeks was 3135±910, When co-administered, the GAA was 787±155, and when administered separately (sequentially), the GAA was 926±202 (FIG. 26). After re-challenge, terminal sampling was done at week 11. The mean free GAA after 11 weeks was 8775±2363, When co-administered, the GAA was 895±335, and when administered separately (sequentially), the GAA was 1884±761. […] Either administration method was able to induce a hypo-responsiveness towards GAA.

[2] = Rituximab pharmacokinetics after iv and sc administration in isotonic and hypertonic buffers; assay type: in vivo, SW mice
Description: Preparation and characterization of injection buffers: One isotonic and six different hypertonic TRIS buffers were prepared to investigate the effects of hypertonicity and buffer composition on rituximab lymphatic uptake and plasma exposure (Table 1.).
Isotonic TRIS buffer was prepared using 25 mM TRIS and 150 mM NaCl (Buffer A). Hypertonic (600 mmol/kg) TRIS buffers were prepared with 25 mM of TRIS containing 300 mM NaCl (Buffer B). Buffers “C” and “E” contained NaCl as well as 20 mM of OPLS or Mannitol. To further delineate the effects of buffer composition on lymphatic uptake, we prepared two buffers at 600 mmol/kg with a 270 mM of OPLS (Buffer D) or mannitol (Buffer F). […] Osmolarity was measured using a 5500 Vapor Pressure Osmometer (Wescore Inc. Logen, Utah, USA) according to manufacturer's instruction.
Rituximab pharmacokinetics studies: 126 male SW mice were divided into 7 groups. […] The disposition of RXT will be determined from the iv PK profile and convoluted with the absorption data generated from the sc studies. […] Immediately before analysis; the inguinal lymph nodes were homogenized in 300 μl of PBS on ice and then analyzed.
Analysis of RXT in plasma and lymph node samples: Analysis of plasma and lymph node samples from PK studies was done with a standard ELISA. […] Optical density at 450 nm was measured using a plate reader.

N[C@H](COP(=O)(O)O)C(=O)O [OPDS, O-Phospho-D-Serine, reference compound]
Anti-GAA antibody titers vs GAA alone (anti-GAA antibody titers): lower | FVIII-specific hypo-responsiveness upon rechallenge [1]: did not

free GAA: Full length recombinant rhGAA produced in Human Kidney Embryo Cells by Creative Biomart
Total titers (ELISA), week 11 after re-challenge (anti-GAA total titers; control group, rechallenge 4 weekly 1 μg rhGAA): 8775±2363 | Total titers (ELISA), week 6 (anti-GAA total titers; control: TRIS then 1 μg rhGAA 5 min later, same site, 4 weekly sc): 3135±910

rituximab: Commercial preparation of rituximab (RXT)
sc bioavailability of rituximab ([2]; 1 μg/g in isotonic Buffer A): 0.29 | Fraction of the dose taken up by the lymph nodes ([2]; 1 μg/g sc in isotonic Buffer A, estimated): 0.05

Reference: patent US20220016241A1, “COMPOSITIONS AND METHODS FOR REDUCING ANTIGEN-SPECIFIC IMMUNOGENICITY” (The Research Foundation for The State University of New York, priority 2013, published 2022)
